Data: patent publication US12208092B2, “Compositions and methods for administering paltusotine to patients with hepatic impairment” (CRINETICS PHARMACEUTICALS, INC., priority 2023, dated 2025)

Assay: Phase 1 hepatic impairment study, safety (TEAEs) after single oral 20 mg tablet
[1] = normal hepatic function (N = 14)
[2] = severe hepatic impairment (N = 6)

Experimental: The secondary objective of the study was to assess the safety and tolerability of a single dose of paltusotine in subjects with varying degrees of hepatic impairment.
Safety and tolerability were assessed by the following endpoints: reported adverse events (AEs), clinical laboratory test results (hematology, coagulation, serum chemistry, and urinalysis), vital sign measurements, and 12-lead electrocardiogram results
All 36 subjects who were enrolled in the study received all planned single doses of paltusotine 20 mg (1×20 mg tablet) and were included in the safety and PK analysis populations.

N#Cc1cccc(-c2ccc3ncc(-c4cc(F)cc(F)c4)c(N4CCC(N)CC4)c3c2)c1O [paltusotine, 3-[4-(4-amino-1-piperidyl)-3-(3,5-difluorophenyl)-6-quinolyl]-2-hydroxybenzonitrile]
TEAE SOC Gastrointestinal disorders, number of occurrences [1]: 5
TEAE SOC Gastrointestinal disorders, subjects n (%) [1]: 4 (28.6%)
TEAE SOC General disorders and administration site conditions, subjects n (%) [1]: 0
TEAE SOC Infections and infestations, subjects n (%) [1]: 0
TEAE SOC Nervous system disorders, number of occurrences [1]: 1
TEAE SOC Nervous system disorders, subjects n (%) [1]: 1 (7.1%)
TEAE SOC Renal and urinary disorders, subjects n (%) [1]: 0
TEAEs Not Related to study drug (strongest relationship), subjects n (%) [1]: 1 (7.1%)
TEAEs Not Related to study drug, number of occurrences [1]: 1
TEAEs Related to study drug (strongest relationship), subjects n (%) [1]: 3 (21.4%)
TEAEs Related to study drug, number of occurrences [1]: 5
TEAEs by maximum severity: Mild, number of occurrences [1]: 5
TEAEs by maximum severity: Mild, subjects n (%) [1]: 3 (21.4%)
TEAEs by maximum severity: Moderate, number of occurrences [1]: 1
TEAEs by maximum severity: Moderate, subjects n (%) [1]: 1 (7.1%)
TEAEs by maximum severity: Severe, subjects n (%) [1]: 0
Total number of SAEs reported [1]: 0
Total number of TEAEs reported [1]: 6
Any SAEs, number of occurrences (overall (N = 36)): 1
Any TEAE, number of occurrences (overall (N = 36)): 17
Related TEAE Abdominal discomfort, number of occurrences (overall (N = 36)): 1
Related TEAE Abdominal discomfort, subjects n (%) (overall (N = 36)): 1 (2.8%)
Related TEAE Diarrhea, number of occurrences (overall (N = 36)): 5
Related TEAE Diarrhea, subjects n (%) (overall (N = 36)): 5 (13.9%)
Related TEAE Epigastric discomfort, number of occurrences (overall (N = 36)): 1
Related TEAE Epigastric discomfort, subjects n (%) (overall (N = 36)): 1 (2.8%)
Related TEAE Fatigue, number of occurrences (overall (N = 36)): 1
Related TEAE Fatigue, subjects n (%) (overall (N = 36)): 1 (2.8%)
Related TEAE Haematuria, number of occurrences (overall (N = 36)): 1
Related TEAE Haematuria, subjects n (%) (overall (N = 36)): 1 (2.8%)
Related TEAE Headache, number of occurrences (overall (N = 36)): 1
Related TEAE Headache, subjects n (%) (overall (N = 36)): 1 (2.8%)
Related TEAE Neutropenia, number of occurrences (overall (N = 36)): 1
Related TEAE Neutropenia, subjects n (%) (overall (N = 36)): 1 (2.8%)
Related TEAE Pain, number of occurrences (overall (N = 36)): 1
Related TEAE Pain, subjects n (%) (overall (N = 36)): 1 (2.8%)
Related TEAE Paraesthesia, number of occurrences (overall (N = 36)): 1
Related TEAE Paraesthesia, subjects n (%) (overall (N = 36)): 1 (2.8%)
SAEs Not related to study drug (strongest relationship), subjects n (%) (overall (N = 36)): 1 (2.8%)
SAEs Not related to study drug, number of occurrences (overall (N = 36)): 1
SAEs Related to study drug (strongest relationship), subjects (overall (N = 36)): 0
Subjects reporting any SAEs, subjects n (%) (overall (N = 36)): 1 (2.8%)
TEAE Abdominal discomfort, number of occurrences (overall (N = 36)): 1
TEAE Abdominal discomfort, subjects n (%) (overall (N = 36)): 1 (2.8%)
TEAE COVID-19, number of occurrences (overall (N = 36)): 1
TEAE COVID-19, subjects n (%) (overall (N = 36)): 1 (2.8%)
TEAE Death, number of occurrences (overall (N = 36)): 1
TEAE Death, subjects n (%) (overall (N = 36)): 1 (2.8%)
TEAE Diarrhea, number of occurrences (overall (N = 36)): 6
TEAE Diarrhea, subjects n (%) (overall (N = 36)): 6 (16.7%)
TEAE Epigastric discomfort, number of occurrences (overall (N = 36)): 1
TEAE Epigastric discomfort, subjects n (%) (overall (N = 36)): 1 (2.8%)
TEAE Fatigue, number of occurrences (overall (N = 36)): 1
TEAE Fatigue, subjects n (%) (overall (N = 36)): 1 (2.8%)
TEAE Haematuria, number of occurrences (overall (N = 36)): 1
TEAE Haematuria, subjects n (%) (overall (N = 36)): 1 (2.8%)
TEAE Headache, number of occurrences (overall (N = 36)): 2
TEAE Headache, subjects n (%) (overall (N = 36)): 2 (5.6%)
TEAE Neutropenia, number of occurrences (overall (N = 36)): 1
TEAE Neutropenia, subjects n (%) (overall (N = 36)): 1 (2.8%)
TEAE Pain, number of occurrences (overall (N = 36)): 1
TEAE Pain, subjects n (%) (overall (N = 36)): 1 (2.8%)
TEAE Paraesthesia, number of occurrences (overall (N = 36)): 1
TEAE Paraesthesia, subjects n (%) (overall (N = 36)): 1 (2.8%)
TEAE SOC Blood and lymphatic system disorders, number of occurrences (overall (N = 36)): 1
TEAE SOC Blood and lymphatic system disorders, subjects n (%) (overall (N = 36)): 1 (2.8%)
TEAE SOC Gastrointestinal disorders, number of occurrences (overall (N = 36)): 8
TEAE SOC Gastrointestinal disorders, subjects n (%) (overall (N = 36)): 7 (19.4%)
TEAE SOC General disorders and administration site conditions, number of occurrences (overall (N = 36)): 3
TEAE SOC General disorders and administration site conditions, subjects n (%) (overall (N = 36)): 2 (5.6%)
TEAE SOC Infections and infestations, number of occurrences (overall (N = 36)): 1
TEAE SOC Infections and infestations, subjects n (%) (overall (N = 36)): 1 (2.8%)
TEAE SOC Nervous system disorders, number of occurrences (overall (N = 36)): 3
TEAE SOC Nervous system disorders, subjects n (%) (overall (N = 36)): 3 (8.3%)
TEAE SOC Renal and urinary disorders, number of occurrences (overall (N = 36)): 1
TEAE SOC Renal and urinary disorders, subjects n (%) (overall (N = 36)): 1 (2.8%)
TEAEs Not Related to study drug (strongest relationship), subjects n (%) (overall (N = 36)): 1 (2.8%)
TEAEs Not Related to study drug, number of occurrences (overall (N = 36)): 4
TEAEs Related to study drug, number of occurrences (overall (N = 36)): 13
TEAEs by maximum severity: Mild, number of occurrences (overall (N = 36)): 12
TEAEs by maximum severity: Mild, subjects n (%) (overall (N = 36)): 6 (16.7%)
TEAEs by maximum severity: Moderate, number of occurrences (overall (N = 36)): 4
TEAEs by maximum severity: Moderate, subjects n (%) (overall (N = 36)): 3 (8.3%)
TEAEs by maximum severity: Severe, number of occurrences (overall (N = 36)): 1
TEAEs by maximum severity: Severe, subjects n (%) (overall (N = 36)): 1 (2.8%)
Total number of SAEs reported (overall (N = 36)): 1
Total number of TEAEs reported (overall (N = 36)): 17
Any TEAE, number of occurrences [2]: 4
Related TEAE Abdominal discomfort, subjects n (%) [2]: 0
Related TEAE Diarrhea, number of occurrences [2]: 1
Related TEAE Diarrhea, subjects n (%) [2]: 1 (16.7%)
Related TEAE Epigastric discomfort, subjects n (%) [2]: 0
Related TEAE Fatigue, subjects n (%) [2]: 0
Related TEAE Haematuria, subjects n (%) [2]: 0
Related TEAE Headache, subjects n (%) [2]: 0
Related TEAE Neutropenia, number of occurrences [2]: 1
Related TEAE Neutropenia, subjects n (%) [2]: 1 (16.7%)
Related TEAE Pain, subjects n (%) [2]: 0
Related TEAE Paraesthesia, subjects n (%) [2]: 0
SAEs Not related to study drug (strongest relationship), subjects n (%) [2]: 0
SAEs Related to study drug (strongest relationship), subjects [2]: 0
Subjects reporting any SAEs, subjects n (%) [2]: 0
Subjects reporting any TEAE, subjects n (%) [2]: 2 (33.3%)
TEAE Abdominal discomfort, subjects n (%) [2]: 0
TEAE COVID-19, number of occurrences [2]: 1
TEAE COVID-19, subjects n (%) [2]: 1 (16.7%)
TEAE Death, subjects n (%) [2]: 0
TEAE Diarrhea, number of occurrences [2]: 1
TEAE Diarrhea, subjects n (%) [2]: 1 (16.7%)
TEAE Epigastric discomfort, subjects n (%) [2]: 0
TEAE Fatigue, subjects n (%) [2]: 0
TEAE Haematuria, subjects n (%) [2]: 0
TEAE Headache, number of occurrences [2]: 1
TEAE Headache, subjects n (%) [2]: 1 (16.7%)
TEAE Neutropenia, number of occurrences [2]: 1
TEAE Neutropenia, subjects n (%) [2]: 1 (16.7%)
TEAE Pain, subjects n (%) [2]: 0
TEAE Paraesthesia, subjects n (%) [2]: 0
TEAE SOC Blood and lymphatic system disorders, number of occurrences [2]: 1
TEAE SOC Blood and lymphatic system disorders, subjects n (%) [2]: 1 (16.7%)
TEAE SOC Gastrointestinal disorders, number of occurrences [2]: 1
TEAE SOC Gastrointestinal disorders, subjects n (%) [2]: 1 (16.7%)
TEAE SOC General disorders and administration site conditions, subjects n (%) [2]: 0
TEAE SOC Infections and infestations, number of occurrences [2]: 1
TEAE SOC Infections and infestations, subjects n (%) [2]: 1 (16.7%)
TEAE SOC Nervous system disorders, number of occurrences [2]: 1
TEAE SOC Nervous system disorders, subjects n (%) [2]: 1 (16.7%)
TEAE SOC Renal and urinary disorders, subjects n (%) [2]: 0
TEAEs Not Related to study drug (strongest relationship), subjects n (%) [2]: 0
TEAEs Related to study drug (strongest relationship), subjects n (%) [2]: 2 (33.3%)
TEAEs Related to study drug, number of occurrences [2]: 2
TEAEs by maximum severity: Mild, number of occurrences [2]: 2
TEAEs by maximum severity: Mild, subjects n (%) [2]: 1 (16.7%)
TEAEs by maximum severity: Moderate, number of occurrences [2]: 2
TEAEs by maximum severity: Moderate, subjects n (%) [2]: 1 (16.7%)
TEAEs by maximum severity: Severe, subjects n (%) [2]: 0
Total number of SAEs reported [2]: 0
Total number of TEAEs reported [2]: 4
